Laboratory results: the Kinase Knowledgebase extract (Sharma et al. 2016)

Target: EGFR (human) (UniProt P00533)
Details: mda-mb-231

EGFR (human), sequence (P00533 whole entry, looked up): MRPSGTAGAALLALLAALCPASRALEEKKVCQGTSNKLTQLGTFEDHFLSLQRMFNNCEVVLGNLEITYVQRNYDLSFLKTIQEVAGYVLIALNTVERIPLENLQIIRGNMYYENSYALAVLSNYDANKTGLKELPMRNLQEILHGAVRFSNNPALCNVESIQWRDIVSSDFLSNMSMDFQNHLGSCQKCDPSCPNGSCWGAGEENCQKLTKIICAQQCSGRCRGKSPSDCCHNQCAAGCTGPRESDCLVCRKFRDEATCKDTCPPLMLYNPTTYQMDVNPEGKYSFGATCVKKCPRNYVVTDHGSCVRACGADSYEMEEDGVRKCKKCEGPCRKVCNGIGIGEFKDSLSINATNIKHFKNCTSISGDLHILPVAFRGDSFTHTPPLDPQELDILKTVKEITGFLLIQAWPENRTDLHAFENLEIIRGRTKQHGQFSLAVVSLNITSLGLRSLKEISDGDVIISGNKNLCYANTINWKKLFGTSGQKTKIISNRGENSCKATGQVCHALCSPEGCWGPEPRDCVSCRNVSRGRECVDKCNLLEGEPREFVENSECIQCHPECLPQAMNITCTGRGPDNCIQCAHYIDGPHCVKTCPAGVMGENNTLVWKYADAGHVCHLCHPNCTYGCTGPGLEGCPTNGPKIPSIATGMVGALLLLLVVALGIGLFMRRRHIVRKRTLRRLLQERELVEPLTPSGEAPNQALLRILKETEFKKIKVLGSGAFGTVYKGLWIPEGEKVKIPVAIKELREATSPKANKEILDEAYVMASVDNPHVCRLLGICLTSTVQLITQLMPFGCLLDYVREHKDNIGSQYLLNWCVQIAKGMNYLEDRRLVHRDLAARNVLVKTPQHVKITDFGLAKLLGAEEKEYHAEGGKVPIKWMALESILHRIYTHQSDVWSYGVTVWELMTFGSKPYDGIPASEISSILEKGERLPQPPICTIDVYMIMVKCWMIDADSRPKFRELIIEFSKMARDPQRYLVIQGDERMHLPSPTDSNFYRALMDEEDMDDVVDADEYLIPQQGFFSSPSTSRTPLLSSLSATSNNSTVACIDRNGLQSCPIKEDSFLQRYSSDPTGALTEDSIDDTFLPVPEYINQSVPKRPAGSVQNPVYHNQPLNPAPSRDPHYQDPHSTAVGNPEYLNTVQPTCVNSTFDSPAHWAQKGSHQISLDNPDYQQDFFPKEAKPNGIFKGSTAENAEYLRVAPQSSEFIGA

## Cc1oncc1C(=O)Nc1ccc(C(F)(F)F)cc1
  IC50: 97 µM

## C/C(O)=C(/C#N)C(=O)Nc1ccc(OC(F)(F)F)cc1
  IC50: 28.4 µM
